Laboratory results taken from PubChem BioAssay (NCI).
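Values below derive from 48-hour exposures of cells grown in 96-well plates, with endpoints linearly interpolated between the two concentrations bracketing the appropriate inhibition level. Here, GI50 denotes the concentration required for 50% inhibition of growth. TGI marks complete inhibition of growth.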

Assays:
Assay in all cases: NCI tumour cell line growth inhibition, 48 h
LXFL 529 NSCLC = tested on: LXFL 529 NSCLC
RXF-631 renal = tested on: RXF-631 renal
DMS 114 small cell lung = tested on: DMS 114 small cell lung
KM20L2 colon = tested on: KM20L2 colon
SNB-78 CNS = tested on: SNB-78 CNS
DLD-1 colon = tested on: DLD-1 colon
DMS 273 small cell lung = tested on: DMS 273 small cell lung
XF 498 CNS = tested on: XF 498 CNS
MDA-N = tested on: MDA-N
P388 leukemia = tested on: P388 leukemia
SN12K1 renal = tested on: SN12K1 renal
P388/ADR leukemia = tested on: P388/ADR leukemia

Row | Compound | TGI (LXFL 529 NSCLC) [µM] | TGI (RXF-631 renal) [µM] | TGI (DMS 114 small cell lung) [µM] | TGI (KM20L2 colon) [µM] | TGI (SNB-78 CNS) [µM] | TGI (DLD-1 colon) [µM] | TGI (DMS 273 small cell lung) [µM] | TGI (XF 498 CNS) [µM] | TGI (MDA-N) [µM] | TGI (P388 leukemia) [µM] | GI50 (MDA-N) [µM] | TGI (SN12K1 renal) [µM] | TGI (P388/ADR leukemia) [µM]
1 | O=C(NC1CC1)c1c(O)[nH]c(=S)[nH]c1=O | > 100 | > 100 | > 100 | > 100 | > 100 | > 100 |  |  |  |  |  |  | 
2 | Cn1[nH]cc2ccc3nc4ccccc4c(=O)c3c21 | > 100 | > 66.1 | > 100 | > 100 | > 83.9 | > 100 | > 100 |  |  |  |  |  | 
3 | COc1ccc(CN2C(=O)[C@@H]3Cc4c(OC)c(C)c(OC)c(OC)c4[C@H](/C2=C\c2cc(OC)c(OC)c(C)c2OC)N3C(=O)OC(C)C)cc1 | > 100 | > 100 | > 100 | > 100 |  | > 100 | > 100 |  |  |  |  |  | 
4 | Cc1ccc2c(c1)-c1c3c(nn1C)-c1ccccc1SC3O2 (stereo not given) | > 100 |  | > 100 | > 100 | > 100 | > 100 | > 100 | 88.5 |  |  |  |  | 
5 | CC(C)(C)[Si](C)(C)OCC1OC(n2cnc3c(=O)[nH]cnc32)CC1O (stereo not given) |  |  |  |  |  |  |  |  | > 100 |  |  |  | 
6 | O=C(O)CCC(c1ccccc1)(c1ccccc1)c1ccccc1 |  |  |  |  |  |  |  |  | > 100 |  |  |  | 
7 | COC(=O)c1c(O)ccc(O)c1C(C(C)=O)C(C)=O | > 100 |  | > 100 |  | > 100 | > 100 | > 100 | > 100 |  |  |  |  | 
8 | O=C(/C=C/c1ccc(Cl)c(Cl)c1)c1ccccc1Cl | 19.6 | 31.4 | 11.2 | 23.7 | 32.3 | 10.4 | 14.5 | 33.3 |  |  |  |  | 
9 | C[P+]1(Cc2ccccc2)CCCC1 | > 100 |  | > 100 | > 100 | > 100 | > 100 | > 100 |  |  |  |  |  | 
10 | Cc1cccc(C)c1NC(=O)CCC(=O)NC(N)=NC#N | > 100 | > 100 | > 100 | > 100 |  | > 100 |  | > 100 |  |  |  |  | 
11 | NS(=O)(=O)c1ccc(N=Nc2ccc[nH]c2=O)cc1 |  |  |  |  |  |  |  |  | > 100 |  |  |  | 
12 | CC1(C)C(N2CCOCC2)CS1(=O)=O (stereo not given) |  |  |  |  |  |  |  |  | > 10 |  |  |  | 
13 | CC(=O)OC1CCC2OOC1O2 (stereo not given) |  |  | > 100 | > 100 | > 100 |  | > 100 |  |  |  |  |  | 
14 | CN(C)NC(=O)/C(=C/c1ccc(Cl)cc1)NC(=O)c1ccccc1 | > 100 | > 100 |  | > 100 |  | > 100 | > 100 | > 100 |  |  |  |  | 
15 | C=C1C(=O)O[C@H](c2ccoc2)C[C@@H]1[C@@]1(C)CCCC2(C)C(=O)OCC21 (stereo not given in full) | > 100 |  | > 100 | > 100 | > 100 |  | > 100 | > 100 |  |  |  |  | 
16 | O=c1nc2sc3ccccc3c(=O)n2[nH]1 | > 100 | > 100 |  | > 100 | > 100 | > 100 | > 100 | > 100 |  |  |  |  | 
17 | N#C/C(=C\c1c(O)cc(O)cc1O)C(N)=O | > 100 | > 100 | > 100 | > 100 | > 100 | > 100 | > 100 | > 100 |  |  |  |  | 
18 | Cc1ccccc1NC(=O)/C(=N\NC(N)=S)C(C#N)c1ccccc1 (stereo not given) | > 100 | > 100 | > 100 | > 100 | > 100 | > 100 | > 100 |  |  |  |  |  | 
19 | CNC(=O)ON(C(C)=O)C(=O)NC |  |  | 126 | 324 | 384 | 326 | 241 | 131 | 73.6 | 62.4 | > 85.8 | 192 | 111
